From patent US11459323B2, “Monocyclic β-lactam compound for treating bacterial infection” (MEDSHINE DISCOVERY INC., priority 2018, dated 2022)
In brackets after ≈: the same amount, converted by molar mass.

What was measured:
Test in all cases: MIC on clinically isolated bacteria
Assay type in all cases: cell-based
[1] = test system: Pseudomonas aeruginosa W9; conditions: read-out: MIC
Description: (§1) Twenty-five strains of clinically isolated Acinetobacter baumannii and twenty-seven strains of Pseudomonas aeruginosa were respectively selected and used to determine the minimum inhibitory concentration (MIC) of the compounds by micro-liquid dilution method according to the Institute of Clinical and Laboratory Standard (CLSI) requirements.

[2] = test system: Acinetobacter baumannii C333; conditions: Acinetobacter baumannii C333; read-out: Minimum Inhibitory Concentration (MIC)
Description: as §1

[3] = test system: Acinetobacter baumannii C283; conditions: Acinetobacter baumannii C283; read-out: Minimum Inhibitory Concentration (MIC)
Description: as §1

[4] = test system: Pseudomonas aeruginosa W4; conditions: read-out: MIC
Description: as §1

[5] = test system: Pseudomonas aeruginosa W28; conditions: read-out: MIC
Description: as §1

[6] = test system: Pseudomonas aeruginosa M1; conditions: read-out: MIC
Description: as §1

[7] = test system: Pseudomonas aeruginosa C745; conditions: read-out: MIC
Description: as §1

[8] = test system: Pseudomonas aeruginosa W19; conditions: read-out: MIC
Description: as §1

[9] = test system: Acinetobacter baumannii C279; conditions: Acinetobacter baumannii C279; read-out: Minimum Inhibitory Concentration (MIC)
Description: as §1

[10] = test system: Pseudomonas aeruginosa W27; conditions: read-out: MIC
Description: as §1

[11] = test system: Pseudomonas aeruginosa W47; conditions: read-out: MIC
Description: as §1

[12] = test system: Pseudomonas aeruginosa W42; conditions: read-out: MIC
Description: as §1

[13] = test system: Acinetobacter baumannii C328; conditions: Acinetobacter baumannii C328; read-out: Minimum Inhibitory Concentration (MIC)
Description: as §1

[14] = test system: Acinetobacter baumannii C251; conditions: Acinetobacter baumannii C251; read-out: Minimum Inhibitory Concentration (MIC)
Description: as §1

[15] = test system: Acinetobacter baumannii C401; conditions: Acinetobacter baumannii C401; read-out: Minimum Inhibitory Concentration (MIC)
Description: as §1

[16] = test system: Acinetobacter baumannii C315; conditions: Acinetobacter baumannii C315; read-out: Minimum Inhibitory Concentration (MIC)
Description: as §1

[17] = test system: Pseudomonas aeruginosa W35; conditions: read-out: MIC
Description: as §1

[18] = test system: Pseudomonas aeruginosa W20; conditions: read-out: MIC
Description: as §1

[19] = test system: Pseudomonas aeruginosa W21; conditions: read-out: MIC
Description: as §1

[20] = test system: Acinetobacter baumannii C332; conditions: Acinetobacter baumannii C332; read-out: Minimum Inhibitory Concentration (MIC)
Description: as §1

[21] = test system: Pseudomonas aeruginosa W13; conditions: read-out: MIC
Description: as §1

[22] = test system: Pseudomonas aeruginosa M4; conditions: read-out: MIC
Description: as §1

[23] = test system: Acinetobacter baumannii C313; conditions: Acinetobacter baumannii C313; read-out: Minimum Inhibitory Concentration (MIC)
Description: as §1

[24] = test system: Pseudomonas aeruginosa W29; conditions: read-out: MIC
Description: as §1

[25] = test system: Pseudomonas aeruginosa W46; conditions: read-out: MIC
Description: as §1

[26] = test system: Pseudomonas aeruginosa W32; conditions: read-out: MIC
Description: as §1

[27] = test system: Acinetobacter baumannii C427; conditions: Acinetobacter baumannii C427; read-out: Minimum Inhibitory Concentration (MIC)
Description: as §1

[28] = test system: Acinetobacter baumannii C394; conditions: Acinetobacter baumannii C394; read-out: Minimum Inhibitory Concentration (MIC)
Description: as §1

[29] = test system: Pseudomonas aeruginosa C762; conditions: read-out: MIC
Description: as §1

[30] = test system: Pseudomonas aeruginosa W23; conditions: read-out: MIC
Description: as §1

[31] = test system: Acinetobacter baumannii C402; conditions: Acinetobacter baumannii C402; read-out: Minimum Inhibitory Concentration (MIC)
Description: as §1

[32] = test system: Pseudomonas aeruginosa W24; conditions: read-out: MIC
Description: as §1

[33] = test system: Acinetobacter baumannii C390; conditions: Acinetobacter baumannii C390; read-out: Minimum Inhibitory Concentration (MIC)
Description: as §1

[34] = test system: Pseudomonas aeruginosa C755; conditions: read-out: MIC
Description: as §1

Aeruginosa ATCC27853 = conditions: Pseudomonas aeruginosa; Aeruginosa ATCC27853; read-out: MIC
Description: as §1

[35] = test system: Acinetobacter baumannii C395; conditions: Acinetobacter baumannii C395; read-out: Minimum Inhibitory Concentration (MIC)
Description: as §1

[36] = test system: Pseudomonas aeruginosa C761; conditions: read-out: MIC
Description: as §1

[37] = test system: Acinetobacter baumannii C241; conditions: Acinetobacter baumannii C241; read-out: Minimum Inhibitory Concentration (MIC)
Description: as §1

[38] = test system: Acinetobacter baumannii C357; conditions: Acinetobacter baumannii C357; read-out: Minimum Inhibitory Concentration (MIC)
Description: as §1

[39] = test system: Acinetobacter baumannii C330; conditions: Acinetobacter baumannii C330; read-out: Minimum Inhibitory Concentration (MIC)
Description: as §1

[40] = test system: Pseudomonas aeruginosa C754; conditions: read-out: MIC
Description: as §1

Compound: CC1(C)[C@H](NC(=O)/C(=N\O[C@@H](COc2ccc3c(c2)CN(C(=N)N[C@@H]2CCCNC2)C3)C(=O)O)c2csc(N)n2)C(=O)N1OS(=O)(=O)O [Compound 41]
- MIC [1]: 4 µg/mL (≈ 5.64 µM)
- MIC [2]: 2 µg/mL (≈ 2.82 µM)
- MIC [3]: 2 µg/mL (≈ 2.82 µM)
- MIC [4]: 0.5 µg/mL (≈ 0.704 µM)
- MIC [5]: 4 µg/mL (≈ 5.64 µM)
- MIC [6]: 1 µg/mL (≈ 1.41 µM)
- MIC [7]: 4 µg/mL (≈ 5.64 µM)
- MIC [8]: 1 µg/mL (≈ 1.41 µM)
- MIC [9]: 2 µg/mL (≈ 2.82 µM)
- MIC [10]: 4 µg/mL (≈ 5.64 µM)
- MIC [11]: 2 µg/mL (≈ 2.82 µM)
- MIC [12]: 0.5 µg/mL (≈ 0.704 µM)
- MIC [13]: 2 µg/mL (≈ 2.82 µM)
- MIC [14]: 8 µg/mL (≈ 11.3 µM)
- MIC [15]: 1 µg/mL (≈ 1.41 µM)
- MIC [16]: 2 µg/mL (≈ 2.82 µM)
- MIC [17]: 0.5 µg/mL (≈ 0.704 µM)
- MIC [18]: 4 µg/mL (≈ 5.64 µM)
- MIC [19]: 0.5 µg/mL (≈ 0.704 µM)
- MIC [20]: 2 µg/mL (≈ 2.82 µM)
- MIC [21]: 0.5 µg/mL (≈ 0.704 µM)
- MIC [22]: 0.5 µg/mL (≈ 0.704 µM)
- MIC [23]: 2 µg/mL (≈ 2.82 µM)
- MIC [24]: 1 µg/mL (≈ 1.41 µM)
- MIC [25]: 2 µg/mL (≈ 2.82 µM)
- MIC [26]: 4 µg/mL (≈ 5.64 µM)
- MIC [27]: 4 µg/mL (≈ 5.64 µM)
- MIC [28]: 2 µg/mL (≈ 2.82 µM)
- MIC [29]: 8 µg/mL (≈ 11.3 µM)
- MIC [30]: 0.5 µg/mL (≈ 0.704 µM)
- MIC [31]: 2 µg/mL (≈ 2.82 µM)
- MIC [32]: 2 µg/mL (≈ 2.82 µM)
- MIC [33]: 2 µg/mL (≈ 2.82 µM)
- MIC [34]: 0.5 µg/mL (≈ 0.704 µM)
- MIC (Aeruginosa ATCC27853): 0.5 µg/mL (≈ 0.704 µM)
- MIC [35]: 2 µg/mL (≈ 2.82 µM)
- MIC [36]: 1 µg/mL (≈ 1.41 µM)
- MIC [37]: 4 µg/mL (≈ 5.64 µM)
- MIC [38]: 2 µg/mL (≈ 2.82 µM)
- MIC [39]: 2 µg/mL (≈ 2.82 µM)
- MIC [40]: 0.5 µg/mL (≈ 0.704 µM)

Compound: CC1(C)[C@H](NC(=O)/C(=N\O[C@@H](COc2ccc3c(c2)CN(C(=N)NOCCN)C3)C(=O)O)c2csc(N)n2)C(=O)N1OS(=O)(=O)O [Compound 43]
- MIC [1]: 8 µg/mL (≈ 11.7 µM)
- MIC [2]: 8 µg/mL (≈ 11.7 µM)
- MIC [3]: 8 µg/mL (≈ 11.7 µM)
- MIC [4]: 0.5 µg/mL (≈ 0.729 µM)
- MIC [5]: 8 µg/mL (≈ 11.7 µM)
- MIC [6]: 1 µg/mL (≈ 1.46 µM)
- MIC [7]: 8 µg/mL (≈ 11.7 µM)
- MIC [8]: 4 µg/mL (≈ 5.83 µM)
- MIC [9]: 8 µg/mL (≈ 11.7 µM)
- MIC [10]: 8 µg/mL (≈ 11.7 µM)
- MIC [11]: 8 µg/mL (≈ 11.7 µM)
- MIC [12]: 1 µg/mL (≈ 1.46 µM)
- MIC [13]: 8 µg/mL (≈ 11.7 µM)
- MIC [14]: 8 µg/mL (≈ 11.7 µM)
- MIC [15]: 8 µg/mL (≈ 11.7 µM)
- MIC [16]: 8 µg/mL (≈ 11.7 µM)
- MIC [17]: 1 µg/mL (≈ 1.46 µM)
- MIC [18]: 8 µg/mL (≈ 11.7 µM)
- MIC [19]: 1 µg/mL (≈ 1.46 µM)
- MIC [20]: 8 µg/mL (≈ 11.7 µM)
- MIC [21]: 1 µg/mL (≈ 1.46 µM)
- MIC [22]: 0.25 µg/mL (≈ 0.365 µM)
- MIC [23]: 8 µg/mL (≈ 11.7 µM)
- MIC [24]: 8 µg/mL (≈ 11.7 µM)
- MIC [25]: 4 µg/mL (≈ 5.83 µM)
- MIC [26]: 8 µg/mL (≈ 11.7 µM)
- MIC [27]: 16 µg/mL (≈ 23.3 µM)
- MIC [28]: 8 µg/mL (≈ 11.7 µM)
- MIC [29]: 16 µg/mL (≈ 23.3 µM)
- MIC [30]: 1 µg/mL (≈ 1.46 µM)
- MIC [31]: 8 µg/mL (≈ 11.7 µM)
- MIC [32]: 8 µg/mL (≈ 11.7 µM)
- MIC [33]: 8 µg/mL (≈ 11.7 µM)
- MIC [34]: 1 µg/mL (≈ 1.46 µM)
- MIC (Aeruginosa ATCC27853): 1 µg/mL (≈ 1.46 µM)
- MIC [35]: 8 µg/mL (≈ 11.7 µM)
- MIC [36]: 2 µg/mL (≈ 2.92 µM)
- MIC [37]: > 16 µg/mL
- MIC [38]: 8 µg/mL (≈ 11.7 µM)
- MIC [39]: 8 µg/mL (≈ 11.7 µM)
- MIC [40]: 1 µg/mL (≈ 1.46 µM)

Compound: CC1(C)[C@H](NC(=O)/C(=N\O[C@@H](COc2ccc3c(c2)CN(C(=N)NCCN)C3)C(=O)O)c2csc(N)n2)C(=O)N1OS(=O)(=O)O [Compound 44]
- MIC [1]: 4 µg/mL (≈ 5.97 µM)
- MIC [2]: 2 µg/mL (≈ 2.99 µM)
- MIC [3]: 1 µg/mL (≈ 1.49 µM)
- MIC [4]: 0.5 µg/mL (≈ 0.747 µM)
- MIC [5]: 4 µg/mL (≈ 5.97 µM)
- MIC [6]: 0.5 µg/mL (≈ 0.747 µM)
- MIC [7]: 4 µg/mL (≈ 5.97 µM)
- MIC [8]: 1 µg/mL (≈ 1.49 µM)
- MIC [9]: 1 µg/mL (≈ 1.49 µM)
- MIC [10]: 4 µg/mL (≈ 5.97 µM)
- MIC [11]: 2 µg/mL (≈ 2.99 µM)
- MIC [12]: 0.5 µg/mL (≈ 0.747 µM)
- MIC [13]: 1 µg/mL (≈ 1.49 µM)
- MIC [14]: 4 µg/mL (≈ 5.97 µM)
- MIC [15]: 1 µg/mL (≈ 1.49 µM)
- MIC [16]: 1 µg/mL (≈ 1.49 µM)
- MIC [17]: 0.25 µg/mL (≈ 0.373 µM)
- MIC [18]: 2 µg/mL (≈ 2.99 µM)
- MIC [19]: 0.5 µg/mL (≈ 0.747 µM)
- MIC [20]: 1 µg/mL (≈ 1.49 µM)
- MIC [21]: 0.5 µg/mL (≈ 0.747 µM)
- MIC [22]: 0.5 µg/mL (≈ 0.747 µM)
- MIC [23]: 1 µg/mL (≈ 1.49 µM)
- MIC [24]: 2 µg/mL (≈ 2.99 µM)
- MIC [25]: 1 µg/mL (≈ 1.49 µM)
- MIC [26]: 2 µg/mL (≈ 2.99 µM)
- MIC [27]: 2 µg/mL (≈ 2.99 µM)
- MIC [28]: 1 µg/mL (≈ 1.49 µM)
- MIC [29]: 4 µg/mL (≈ 5.97 µM)
- MIC [30]: 0.5 µg/mL (≈ 0.747 µM)
- MIC [31]: 1 µg/mL (≈ 1.49 µM)
- MIC [32]: 2 µg/mL (≈ 2.99 µM)
- MIC [33]: 1 µg/mL (≈ 1.49 µM)
- MIC [34]: 0.5 µg/mL (≈ 0.747 µM)
- MIC (Aeruginosa ATCC27853): 0.5 µg/mL (≈ 0.747 µM)
- MIC [35]: 1 µg/mL (≈ 1.49 µM)
- MIC [36]: 1 µg/mL (≈ 1.49 µM)
- MIC [37]: 2 µg/mL (≈ 2.99 µM)
- MIC [38]: 1 µg/mL (≈ 1.49 µM)
- MIC [39]: 1 µg/mL (≈ 1.49 µM)
- MIC [40]: 0.5 µg/mL (≈ 0.747 µM)
